This note sets out measurements from PubChem BioAssay (NCI).

Common to all, as to assay: NCI tumour cell line growth inhibition, 48 h
Experiment [1] deals with SK-MEL-28 melanoma.
The test system of experiment [2] is OVCAR-8 ovarian.
Experiment [3] deals with SK-OV-3 ovarian.
In experiment [4] the test system is RXF 393 renal.
Experiment [5] deals with MCF7 breast.
Experiment [6] deals with HCT-15 colon.
The subject of experiment [7] is A498 renal.
Experiment [8] relates to MOLT-4 leukemia.
Experiment [9] deals with SF-539 CNS.
Experiment [10] concerns A549 NSCLC.

Several values for one entry are separate records, joined by “and”; a condition that tells them apart may be missing. Identical values can stand only once.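 Method: 48-hour compound exposure of cells in 96-well plates, five concentrations, linear interpolation of endpoints. GI50 marks 50% less growth. TGI denotes the concentration required for complete inhibition of growth.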 Some results are limits rather than exact numbers.

In the case of `Cc1ccc(C(=O)NC2C(=O)NC(C(C)C)C(=O)N3CCCC3C(=O)N(C)CC(=O)N(C)C(C(C)C)C(=O)OC2C)c2c1Oc1c(c(C(=O)NC3C(=O)NC(C(C)C)C(=O)N4CCCC4C(=O)N(C)CC(=O)N(C)C(C(C)C)C(=O)OC3C)c3nc(-c4ccccc4)c(=O)oc3c1C)N2` (stereo unspecified), the TGI is 0.0139 µM in experiment [1]; 0.0273 µM in experiment [2]; 16.1 µM in experiment [3]; 0.00911 µM in [4]; 0.0116 µM in experiment [5]; 0.646 µM and 0.318 µM in experiment [6]. The TGI in experiment [7] is 0.00273 µM; in experiment [8], 0.0314 µM; in experiment [9] it was 0.00264 µM; in [10] it was > 100 µM. Moreover, the GI50 in experiment [6] was 0.0159 µM.

`CCCCC(CC)C(=O)Oc1ccc(C(=O)c2ccccc2)c(O)c1` (stereo unspecified): the TGI in experiment [1], in experiment [2], in experiment [3], in experiment [4], in [5] and in experiment [6] was > 100 µM in each case. In addition, the TGI in experiment [7], in experiment [8], in [9] and in experiment [10] was > 100 µM throughout.

Take `CC1(C=O)CC(CCc2ccccc2)NC1Cc1ccc(O)cc1` (stereo unspecified): the TGI stood at 54 µM in [1]; 43.7 µM in experiment [2]; 33.4 µM in experiment [3]; 31 µM in [4]; 27.1 µM in [5]; 43.3 µM in experiment [6]. Also, the TGI was found to be 27.9 µM in experiment [7], 38.2 µM in experiment [8], 29.4 µM in experiment [9] and 30.1 µM in experiment [10].

On to `COC(=O)[C@]12CC[C@H]3CN(S(=O)(=O)c4ccc(C)cc4)[C@H]([C@H]31)[C@H](c1ccco1)N2S(=O)(=O)c1ccc(C)cc1`, for which the TGI in experiment [1] is > 100 µM; in [2], > 100 µM; in [3], > 100 µM; in experiment [4] it was 71.5 µM; in [5], > 100 µM; in [6] it was > 100 µM. Also, the TGI in [7], in experiment [8], in [9] and in experiment [10] was > 100 µM throughout.

On to `CCCCCCC(=O)OC[n+]1ccc(-c2c(COC(=O)NC(C)C)c(COC(=O)NC(C)C)c3n2CCC3)cc1`, for which the TGI in experiment [1], in experiment [2], in experiment [3], in [4], in [5] and in experiment [6] was > 100 µM each time. In addition, the TGI was > 94.2 µM in experiment [7], > 94.3 µM in experiment [8], > 100 µM in experiment [9] and > 100 µM in [10].

Turning to `CC(=O)NC1C(OCc2ccccc2)OC(CO)C(O)C1OCC(=O)NC(C(=O)NC(CCC(=O)NCCCCCC(=O)Nc1ccc2c(c1)CN1C(=O)c3ccccc3C1=N2)C(N)=O)C(C)C` (stereo unspecified), the TGI in [1] is 39 µM; in [2] it was 79.5 µM; in experiment [3], 44.6 µM; in [4] it was 45 µM; in experiment [5] it was 56.7 µM; in experiment [6], > 100 µM. The TGI was 73.7 µM in experiment [7], > 100 µM in experiment [8], 37.7 µM in experiment [9] and > 100 µM in experiment [10].

Regarding `O=P1(Oc2ccc(Cl)cc2Cl)Oc2cc3ccccc3cc2O1`, the TGI in experiment [1] was > 100 µM; in experiment [2] it was > 100 µM; in [3] it was > 100 µM; in experiment [4] it was > 100 µM; in experiment [5], > 74.4 µM; in [6], > 100 µM. For the same compound, the TGI in experiment [7] is > 90.5 µM; in experiment [8], > 71.4 µM; in [9] it was > 100 µM; in experiment [10], > 100 µM.
